System: nitrification of the ammonia nitrogen (NH4—N) in the sludge
Experiment: Nitrification batch test in crop soil/water sludge under nitrifying conditions
Settings: for inhibition of nitrification of ammonia nitrogen (NH4—N) in the sludge: Tables 3 and 4, in words; for nitrification process: first 8 hours; for NH4—N Conversion Rate During First 24 Hours: dosed NH4—N 50 mg/l; for NH4—N Conversion Rate During First 24 Hours / COD / NH4—N concentration / NO3—N concentration: DCD 5.8 mg/l
Procedure: Crop soil and water were combined to form a sludge. The freshly-acquired sludge contained a high amount of nitrate nitrogen, therefore, the sludge was pretreated to reduce the chance of denitrification during analysis. Ethylene glycol was added to the sludge and the resulting sludge was purged with nitrogen gas for 24 hours to eliminate the nitrate nitrogen. After 24 hours, the sludge was aerated to eliminate the residual chemical oxygen demand (COD) which could be present. COD refers to the amount of oxygen required to degrade all oxidizable compounds in a measured sample.
A nitrification batch test was performed under nitrifying conditions. The activity of nitrification inhibitor Formula II compound was compared to that of the nitrification inhibitor dicyandiamide (DCD). COD and NH4—N were added to the sludge with one of the Formula II compound or DCD. COD, NH4—N, and NO3—N concentrations were monitored over time (t=0, 2, 4, 6, 8, 24 and 29 hours). The COD and NH4—N removal was calculated from the analysis results. Glycol was included as a reference in the test.
The pH and oxygen content were also monitored during the tests. The pH level was kept between 7 and 8 at the beginning of the tests by adding 1N HCl or 1N NaOH. Oxygen was constantly purged into the sludge solutions throughout the test to get maximum aeration.
Table 2 includes the concentrations assessed for the five batch tests. A sample concentration of approximately 10% compared to the NH4—N concentration was employed.
Values shown in brackets are below the quantification limit and are indicative. Measurements taken at time=0 were taken 60 seconds after mixing the sludge with the indicated substance. The nitrification process was nominal for both DCD and Formula II compound during the first 8 hours, then nitrification rates increased. The NH4—N and NO3—N concentrations were tested at 29 hours to verify that the nitrification process was still ongoing.

[1] = first 24 hours, Formula II compound 7.6 mg/l
[2] = time 0 h (60 seconds after mixing), dosed COD 800 mg O2/l, NH4—N 50 mg/l, Formula II compound 7.6 mg/l
[3] = time 2 h, dosed COD 800 mg O2/l, NH4—N 50 mg/l, Formula II compound 7.6 mg/l
[4] = time 4 h, dosed COD 800 mg O2/l, NH4—N 50 mg/l, Formula II compound 7.6 mg/l
[5] = time 6 h, dosed COD 800 mg O2/l, NH4—N 50 mg/l, Formula II compound 7.6 mg/l
[6] = time 8 h, dosed COD 800 mg O2/l, NH4—N 50 mg/l, Formula II compound 7.6 mg/l
[7] = time 24 h, dosed COD 800 mg O2/l, NH4—N 50 mg/l, Formula II compound 7.6 mg/l
[8] = time 29 h, dosed COD 800 mg O2/l, NH4—N 50 mg/l, Formula II compound 7.6 mg/l

| Structure (SMILES) | inhibition of nitrification of ammonia nitrogen (NH4—N) in the sludge | nitrification process (in words) | NH4—N Conversion Rate During First 24 Hours [1] | COD [2] | NH4—N concentration [2] | NO3—N concentration [2] | COD [3] | NH4—N concentration [3] | NO3—N concentration [3] | COD [4] | NH4—N concentration [4] | NO3—N concentration [4] | COD [5] | NH4—N concentration [5] | NO3—N concentration [5] | COD [6] | NH4—N concentration [6] | NO3—N concentration [6] | COD [7] | NH4—N concentration [7] | other results |
| --- | --- | --- | --- | --- | --- | --- | --- | --- | --- | --- | --- | --- | --- | --- | --- | --- | --- | --- | --- | --- | --- |
| N#CNC(=N)N [DCD, dicyandiamide, reference compound] | effective at inhibiting the nitrification of the ammonia nitrogen (NH4—N) in the sludge | nominal | 1.5 mg NH4—N/l · h | 757 mg O2/l | 45.9 mg/L | 8.6 mg/L | 558 mg O2/l | 43.0 mg/L | 5.5 mg/L | 360 mg O2/l | 39.4 mg/L | 8.9 mg/L | 190 mg O2/l | 39.7 mg/L | 7.4 mg/L | 121 mg O2/l | 33.2 mg/L | 7.3 mg/L | 48 mg O2/l | 9.9 mg/L | NO3—N concentration [7]: 39.0 mg/L; NH4—N concentration [8]: 4.0 mg/L; NO3—N concentration [8]: 47.2 mg/L |
| OCn1cncn1 [Formula II compound, (1H-1,2,4-triazole-1-yl)-methanol] | effective at inhibiting the nitrification of the ammonia nitrogen (NH4—N) in the sludge | nominal | 0.9 mg NH4—N/l · h | 718 mg O2/l | 45.2 mg/L | 8.8 mg/L | 497 mg O2/l | 41.6 mg/L | 13.8 mg/L | 314 mg O2/l | 40.3 mg/L | 11.8 mg/L | 204 mg O2/l | 42.0 mg/L | 7.2 mg/L | 158 mg O2/l | 37.9 mg/L | < 2.3 mg/L | 60 mg O2/l | 23.8 mg/L | effectiveness at inhibiting nitrification compared with DCD (first 24 hours, in words): more effective at inhibiting nitrification during the first 24 hours; NO3—N concentration, indicative value in brackets (below the quantification limit) [6]: 1.5 mg/L; NO3—N concentration [7]: 16.2 mg/L; NH4—N concentration [8]: 22.9 mg/L; NO3—N concentration [8]: 20.4 mg/L |
